In patent EP3995135B1, “PROLONGED RELEASE DOSAGE FORM OF […]-(+)- TARTARIC ACID SALT” (Grünenthal GmbH, priority 2020, dated 2022):
Structures can show the parent of a compound that is named as a salt.

Key:
[1] = Intrinsic dissolution (dissolution rate) of compressed salt samples in a Wood apparatus; assay type: physicochemical; conditions: 37°C, 900 ml, 50 U/min
Procedure: 100 mg Tapentadol, entweder in Form des Hydrochloridsalzes oder des Salzes mit L-(+)-Weinsäure wurden mit einer Presskraft von 200 kg (gravitativ) bei einer Oberfläche von 0,5 cm^2 1 Minute verpresst. Die so erhaltenen verpressten Proben wurden in einem Wood-Apparat bei 37°C in 900 ml Auflösungsmedium bei verschiedenen pH-Werten und einer Paddeldrehgeschwindigkeit von 50 U/min auf ihre Auflösungsrate untersucht.

[2] = Thermodynamic solubility (saturation solubility, HPLC quantification as free base); assay type: physicochemical; conditions: for Thermodynamische Löslichkeit, Assay ausgedrückt als Base: 24 h at 25°C; for pH Ende: pH of the solution at the end (24 h, 25°C); for pH Start: pH of the solution at the start
Procedure: Die thermodynamische Löslichkeit von Tapentadolhydrochlorid und des Salzes von Tapentadol mit L-(+)-Weinsäure wurde als Sättigungslöslichkeit in verschiedenen Medien bei verschiedenen pH-Werten bestimmt. Die Lösungen wurden 24 Stunden bei 25°C gerührt und die pH-Werte der Lösungen zu Beginn und am Ende der Experimente wurden gemessen. Die gelöste Menge an Tapentadol wurde durch HPLC quantifiziert (freie Base von Tapentadol). Die experimentellen Ergebnisse sind in der Tabelle unten zusammengestellt: […]

Structure (SMILES)	intrinsische Auflösung (Auflösungsrate) ([1]; pH 1,0, 0 min)	intrinsische Auflösung (Auflösungsrate) ([1]; pH 1,0, 1 min)	intrinsische Auflösung (Auflösungsrate) ([1]; pH 1,0, 3 min)	intrinsische Auflösung (Auflösungsrate) ([1]; pH 1,0, 5 min)	intrinsische Auflösung (Auflösungsrate) ([1]; pH 4,5, 0 min)	intrinsische Auflösung (Auflösungsrate) ([1]; pH 4,5, 1 min)	intrinsische Auflösung (Auflösungsrate) ([1]; pH 4,5, 3 min)	intrinsische Auflösung (Auflösungsrate) ([1]; pH 4,5, 5 min)	intrinsische Auflösung (Auflösungsrate) ([1]; pH 6,8, 0 min)	intrinsische Auflösung (Auflösungsrate) ([1]; pH 6,8, 1 min)	intrinsische Auflösung (Auflösungsrate) ([1]; pH 6,8, 3 min)	intrinsische Auflösung (Auflösungsrate) ([1]; pH 6,8, 5 min)	intrinsische Auflösung (Auflösungsrate) ([1]; pH 7,4, 0 min)	intrinsische Auflösung (Auflösungsrate) ([1]; pH 7,4, 1 min)	intrinsische Auflösung (Auflösungsrate) ([1]; pH 7,4, 3 min)	intrinsische Auflösung (Auflösungsrate) ([1]; pH 7,4, 5 min)	Thermodynamische Löslichkeit, Assay ausgedrückt als Base ([2]; medium 0,1 M HCl)	Thermodynamische Löslichkeit, Assay ausgedrückt als Base ([2]; medium Acetat pH 4,5)	Thermodynamische Löslichkeit, Assay ausgedrückt als Base ([2]; medium SIF sp pH 6,8)	Thermodynamische Löslichkeit, Assay ausgedrückt als Base ([2]; medium Wasser)	also measured
CC[C@@H](c1cccc(O)c1)[C@@H](C)CN(C)C [Tapentadolhydrochlorid, (-)-(1R,2R)-3-(3-Dimethylamino-1-ethyl-2-methylpropyl)phenol, reference compound]	0%	52%	95%	99%	0%	60%	91%	95%	0%	38%	79%	92%	0%	27%	65%	80%	31,2 g/100 ml	32,7 g/100 ml	32,4 g/100 ml	33,0 g/100 ml	Thermodynamische Löslichkeit, Assay ausgedrückt als Base ([2]; medium Citrat pH 7.4): 31,9 g/100 ml; pH Ende ([2]; medium 0,1 M HCl): 0,83; pH Ende ([2]; medium Acetat pH 4,5): 4,29; pH Ende ([2]; medium Citrat pH 7.4): 6,33; pH Ende ([2]; medium SIF sp pH 6,8): 6,23; pH Ende ([2]; medium Wasser): 4,63; pH Start ([2]; medium 0,1 M HCl): 1,11; pH Start ([2]; medium Acetat pH 4,5): 4,54; pH Start ([2]; medium Citrat pH 7.4): 7,39; pH Start ([2]; medium SIF sp pH 6,8): 6,82
CC[C@@H](c1cccc(O)c1)[C@@H](C)CN(C)C [Salz von Tapentadol mit L-(+)-Weinsäure, (-)-(1R,2R)-3-(3-Dimethylamino-1-ethyl-2-methylpropyl)phenol]	0%	19%	51%	77%	0%	20%	51%	77%	0%	19%	44%	67%	0%	18%	44%	65%	26,7 g/100 ml	26,6 g/100 ml	12,6 g/100 ml	26,4 g/100 ml	Thermodynamische Löslichkeit, Assay ausgedrückt als Base ([2]; medium Phosphat pH 7,4): 12,9 g/100 ml; pH Ende ([2]; medium 0,1 M HCl): 3,39; pH Ende ([2]; medium Acetat pH 4,5): 3,53; pH Ende ([2]; medium Phosphat pH 7,4): 3,56; pH Ende ([2]; medium SIF sp pH 6,8): 3,55; pH Ende ([2]; medium Wasser): 3,38; pH Start ([2]; medium 0,1 M HCl): 1,15; pH Start ([2]; medium Acetat pH 4,5): 4,51; pH Start ([2]; medium Phosphat pH 7,4): 7,53; pH Start ([2]; medium SIF sp pH 6,8): 6,83; pH Start ([2]; medium Wasser): 6,19
